Laboratory results: patent US20110086891A1, “Solid Forms of 2-(2,4-Difluorophenyl)-6-(1-(2,6-Difluorophenyl)Ureido)Nicotinamide)” (Vertex Pharmaceuticals Incorporated, priority 2009, published 2011)
Converted amounts (≈) assume the structure as drawn. “Also recorded” adds a separate entry of the source.

How the values were obtained:
Assay type in all cases: physicochemical
[1] = Apparent (non-equilibrium) solubilities of Form C in various solvents; conditions: thermodynamic from solid
Method: Table XIII contains representative apparent (non-equilibrium) solubilities of Form C in various exemplary solvents.
Fifty (50.0) mg of Compound I, Form C was weighed into a small, screw-top vial. The relevant solvent was added in portions until a clear solution was obtained. In several cases, solubilization was aided by heating with a heat gun and then allowed to cool down to rt. The data provided in Table XIII are representative and some variability may occur between lots of a particular sample, e.g., about 10%.

[2] = Interconversion studies (slurries in EtOAc, MeOH and water); conditions: ambient conditions
Method: Interconversion studies between the different forms of Compound I described herein were carried out using the general procedure outlined here:
Interconversion studies were conducted in EtOAc, MeOH and water with materials giving XRPD patterns A, P, C and F. Attempts were made to monitor the presence of the different forms of Compound I in the methanol and ethyl acetate interconversion slurries using Raman analysis and XRPD. The presence of the solvents was dominant in the Raman spectra of the slurries. […] After slurrying for 10 days, pattern A was obtained from MeOH. Pattern C was obtained from all samples slurried in EtOAc or water. […] Interconversion data can be found in Tables XVII.

[3] = Relative stability studies: slurrying 1:1 mixtures of forms in 3:1 water:ethanol at various temperatures; conditions: slurry in 3:1 water:ethanol
Method: 1:1 mixtures of Form C and form G of Compound I were slurried in 3:1 water:ethanol at a range of temperatures to determine the relative stability at different temperatures. 5 mg of Form C was mixed with 5 mg of Form G in a glass vial. 1.0 ml of 3:1 water:ethanol was added and the resulting slurry was stirred at 5° C. for 10 days. The resulting solid was isolated by filtration and analysed by XRPD (see FIG. 17).
(§1) The above procedure was repeated at 25, 50 and 80° C.
1:1 mixtures of Form C and Form F were slurried in 3:1 water:ethanol at a range of temperatures to determine the relative stability at different temperatures. […] Ethanol was used in addition to water in order to increase the amount of Compound I in solution and so increase the rate of conversion between forms. Ethanol was chosen as no ethanol solvate of Compound I was known. 10 mg of Form C was mixed with 10 mg of Form F in a glass vial. 2.0 ml of 3:1 water:ethanol was added and the resulting slurry was stirred at 5° C. for 24 hours. Solid was isolated by filtration and analysed by XRPD.
as §1
1:1 mixtures of Form F and Form G were slurried in 3:1 water:ethanol at a range of temperatures to determine the relative stability at different temperatures. 10 mg of Form F was mixed with 10 mg of Form G in a glass vial. 2.0 ml of 3:1 water:ethanol was added and the resulting slurry was stirred at 5° C. for 24 hours. The resulting solid was isolated by filtration and analysed by XRPD. The above procedure was repeated at 25, 50 and 70° C. 70° C. was used instead of 80° C. in an attempt to reduce degradation.

[4] = Gravimetric vapour sorption (GVS) studies
Method: All samples were run on a Hiden IGASorp moisture sorption analyzer running CFRSorp software. Sample sizes were typically 10 mg. A moisture absorption-desorption isotherm was performed as outlined below in Table X (2 scans giving 1 complete cycle). All samples were loaded/unloaded at typical room humidity and temperature (40% RH, 25° C.). All samples were analysed by XRPD post GVS analysis. The standard isotherm was performed at 25° C. at 10% RH intervals over a 0-90% RH range.

[5] = Stability studies at 40° C./75% RH (physical and chemical stability, XRPD)
Text: In some embodiments, less than 25% of the solid form of Compound I decomposes, in some embodiments, less than about 20%, less than about 15%, less than about 10%, less than about 5%, less than about 3%, less than about 1%, less than about 0.5% of the form of Compound I decomposes under the conditions specified. In some embodiments, no detectable amount of the solid form of Compound I decomposes. […] In some embodiments, less than 25% of the solid form of Compound I changes into one or more different physical forms when subjected to specified conditions. In some embodiments, less than about 20%, less than about 15%, less than about 10%, less than about 5%, less than about 3%, less than about 1%, less than about 0.5% of the solid form of Compound I changes into one or more different physical forms of Compound I when subjected to specified conditions. In some embodiments, no detectable amount of the solid form of Compound I changes into one or more physically different solid forms of Compound I.

[6] = Solubility analysis (in water); conditions: 25 °C, thermodynamic from solid
Method: This was measured by suspending enough Compound I in 0.25 mL of solvent (water) to give a maximum final concentration of ≧10 mg/ml of the parent free form of the compound. The suspension was equilibrated at 25° C. for 24 hrs followed by a pH check and filtration through a glass fibre C96 well plate. The filtrate was then diluted down by a factor of 101. Quantitation was by HPLC (Table XI) with reference to a standard, diluted and undiluted tests were injected. The solubility was calculated by integration of the peak area found at the same retention time as the peak maximum in the standard injection. If there is sufficient solid in the filter plate the XRPD is normally checked for phase changes, hydrate formation, amorphization, crystallization, etc.

Q: Which results are given for NC(=O)c1ccc(N(C(N)=O)c2c(F)cccc2F)nc1-c1ccc(F)cc1F [Form C, 2-(2,4-difluorophenyl)-6-(1-(2,6-difluorophenyl)ureido)nicotinamide]?
A: solubility ([1]; organic solvent or mixture, apparent, 1,4-dioxane): 100 mg/mL (≈ 247 mM); solubility ([1]; organic solvent or mixture, apparent, 1-Butanol): 50 mg/mL (≈ 124 mM); solubility ([1]; organic solvent or mixture, apparent, 2-Butanone): 50 mg/mL (≈ 124 mM); solubility ([1]; organic solvent or mixture, apparent, 2-Propanol): 50 mg/mL (≈ 124 mM); solubility ([1]; organic solvent or mixture, apparent, 2-Propyl Acetate): < 20 mg/mL; solubility ([1]; organic solvent or mixture, apparent, Acetone): 50 mg/mL (≈ 124 mM); solubility ([1]; organic solvent or mixture, apparent, Acetonitrile): 33 mg/mL (≈ 81.6 mM); solubility ([1]; organic solvent or mixture, apparent, Butyl acetate): 33 mg/mL (≈ 81.6 mM); solubility ([1]; organic solvent or mixture, apparent, DMSO): 100 mg/mL (≈ 247 mM); solubility ([1]; organic solvent or mixture, apparent, Dimethylformamide): 100 mg/mL (≈ 247 mM); solubility ([1]; organic solvent or mixture, apparent, Ethanol): 50 mg/mL (≈ 124 mM); solubility ([1]; organic solvent or mixture, apparent, Ethyl Acetate): 20 mg/mL (≈ 49.5 mM); solubility ([1]; organic solvent or mixture, apparent, Heptane): < 20 mg/mL; solubility ([1]; organic solvent or mixture, apparent, Hexafluorophenol): 100 mg/mL (≈ 247 mM); solubility ([1]; organic solvent or mixture, apparent, Methanol): 100 mg/mL (≈ 247 mM); solubility ([1]; organic solvent or mixture, apparent, Methyl isobutyl ketone): 50 mg/mL (≈ 124 mM); solubility ([1]; organic solvent or mixture, apparent, Methylene Chloride): < 20 mg/mL; solubility ([1]; organic solvent or mixture, apparent, N,N-dimethylacetamide): 100 mg/mL (≈ 247 mM); solubility ([1]; organic solvent or mixture, apparent, Tert-butyl methyl ether): < 20 mg/mL; solubility ([1]; organic solvent or mixture, apparent, Tetrahydrofuran): 20 mg/mL (≈ 49.5 mM); solubility ([1]; organic solvent or mixture, apparent, Toluene): 20 mg/mL (≈ 49.5 mM); solubility ([1]; organic solvent or mixture, apparent, cyclohexane): < 20 mg/mL; solubility ([1]; apparent, Water): < 20 mg/mL; relative stability of unsolvated forms [2]: most stable unsolvated form at ambient conditions; relative stability between forms [3]: more stable than Form G at a temperature of 50 °C or above; also recorded: more stable than Form F at 50 and 80 °C; total weight gain from 0 to 90% RH ([4]; 0 to 90% RH, T=25° C.): 0.15%; weight gain up to 60% RH ([4]; up to 60% RH, 25° C.): negligible; results of stability studies as seen by XRPD (before and after spectra) [5]: before and after spectra are similar; time remaining in substantially the same physical form ([5]; 40° C./75% RH): at least two; solubility at 24 h [6]: ≥ 0.02 mg/mL
